Experimental data published in ChEMBL document CHEMBL4418495, “Entpd5 inhibitors” (2012).
Calls of active or inactive are those of the source.

What was measured:
[1] = target: T1, Nucleoside diphosphate phosphatase ENTPD5 (Homo sapiens) (UniProt O75356); assay: Inhibition of human recombinant ENTPD5 expressed in insect cells assessed as reduction in reduction in UDP hydrolysis by measuring inorganic phosphate release incubated for 1 hr by malachite green based assay
T1 sequence (whole entry): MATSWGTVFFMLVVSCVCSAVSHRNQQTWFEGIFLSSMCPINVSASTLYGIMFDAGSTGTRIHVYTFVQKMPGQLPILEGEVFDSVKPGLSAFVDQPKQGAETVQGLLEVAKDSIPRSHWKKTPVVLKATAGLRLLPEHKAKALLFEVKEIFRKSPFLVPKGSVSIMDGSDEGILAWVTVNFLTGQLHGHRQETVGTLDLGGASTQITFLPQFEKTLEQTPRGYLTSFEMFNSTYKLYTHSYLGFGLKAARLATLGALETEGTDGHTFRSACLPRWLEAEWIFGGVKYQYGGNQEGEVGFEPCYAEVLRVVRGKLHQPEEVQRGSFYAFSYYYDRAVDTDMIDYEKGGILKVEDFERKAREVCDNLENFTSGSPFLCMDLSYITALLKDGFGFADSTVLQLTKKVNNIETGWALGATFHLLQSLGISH

[2] = target: T2, Ectonucleoside triphosphate diphosphohydrolase 5 (Mus musculus) (UniProt Q9WUZ9); assay: Inhibition of ENTPD5 in PTEN knockout mouse MEF cells assessed as induction of ER stress by measuring increase in GRP78/BiP expression at 30 uM incubated for 24 hrs by Western blotting analysis; format: cell-based
T2 sequence (whole entry): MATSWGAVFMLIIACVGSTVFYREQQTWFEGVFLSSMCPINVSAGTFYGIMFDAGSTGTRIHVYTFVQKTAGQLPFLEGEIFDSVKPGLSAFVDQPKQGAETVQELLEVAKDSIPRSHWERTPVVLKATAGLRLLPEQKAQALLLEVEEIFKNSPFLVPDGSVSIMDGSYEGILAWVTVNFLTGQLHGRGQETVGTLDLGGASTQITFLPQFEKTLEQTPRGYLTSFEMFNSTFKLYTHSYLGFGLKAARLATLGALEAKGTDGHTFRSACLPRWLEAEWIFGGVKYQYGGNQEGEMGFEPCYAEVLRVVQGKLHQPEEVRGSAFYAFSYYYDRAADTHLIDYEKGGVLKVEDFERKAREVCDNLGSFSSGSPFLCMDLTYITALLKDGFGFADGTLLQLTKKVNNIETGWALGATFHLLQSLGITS

LNCaP [3] = assay: Antitumor activity against human LNCAP cells xenografted in mouse assessed as reduction in cells left in matrigels at 1 to 100 mg/kg, ip dosed every other day and measured after 6 weeks by hematoxylin and eosin staining based microscopy; format: functional, organism-based
[4] = target: T1, Nucleoside diphosphate phosphatase ENTPD5 (Homo sapiens); assay: Inhibition of human recombinant ENTPD5 expressed in insect cells assessed as reduction in UDP hydrolysis up to 10 uM incubated for 1 hr in presence of UMP, GTP and ATP by Escherichia coli UMP kinase pyrH catalyzed UMP phosphorylation coupled luciferase assay
[5] = target: T3, Uridylate kinase (Escherichia coli (strain K12)) (UniProt P0A7E9); assay: Inhibition of recombinant Escherichia coli UMP kinase pyrH catalyzed UMP phosphorylation in presence of GTP and ATP incubated for 1 hr by luminescence based assay
T3 sequence (whole entry): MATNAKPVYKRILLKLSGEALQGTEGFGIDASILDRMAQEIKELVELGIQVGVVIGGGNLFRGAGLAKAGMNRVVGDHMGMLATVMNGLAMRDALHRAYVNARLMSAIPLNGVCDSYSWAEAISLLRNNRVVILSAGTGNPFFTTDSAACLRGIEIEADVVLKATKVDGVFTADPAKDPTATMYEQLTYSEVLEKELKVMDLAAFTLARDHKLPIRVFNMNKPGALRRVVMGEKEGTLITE

[6] = target: T1, Nucleoside diphosphate phosphatase ENTPD5 (Homo sapiens); assay: Inhibition of human recombinant ENTPD5 expressed in insect cells assessed as reduction in UDP hydrolysis at 1 uM incubated for 1 hr in presence of UMP, GTP and ATP by Escherichia coli UMP kinase pyrH catalyzed UMP phosphorylation coupled luciferase assay
LNCaP [7] = assay: Antitumor activity against human LNCAP cells xenografted in mouse assessed as induction of tumor shrinkage at 1 to 100 mg/kg, ip dosed every other day and measured after 6 weeks by microscopy; format: functional, organism-based

Structure (SMILES) | inhibition [1] | inhibition [2] | Activity (LNCaP [3]) | inhibition [4] | inhibition [5] | inhibition [6] | Activity (LNCaP [7])
O=C1NC(=S)N(c2ccccc2)C(=O)/C1=C/c1cccn1-c1ccc(Cl)cc1 | Active | Active | Active | Dose-dependent effect | inactive | Active | Active
O=C1NC(=S)NC(=O)C1=Cc1ccc(-c2ccc(Cl)c(Cl)c2)o1 | Active | Active | Active | Dose-dependent effect | inactive | Active | Active
O=C(Nc1ccccc1)NC(N1CCOCC1)C(Cl)(Cl)Cl (stereo unspecified) | Active | Active | Active | Dose-dependent effect | inactive | Active | Active
CCOC(=O)c1ccc(-c2ccc(/C=C3/C(=O)NC(=O)N(Cc4ccco4)C3=O)o2)cc1 | Active | Active | Active | Dose-dependent effect | inactive | Active | Active
O=C1NC(=S)NC(=O)C1=Cc1ccc(-c2cc(Cl)ccc2Cl)o1 | Active | Active | Active | Dose-dependent effect | inactive | Active | Active
O=C1/C(=C/c2ccco2)C(=O)N(c2ccc(Br)cc2)C(=S)N1c1ccccc1 | Active | Active | Active | Dose-dependent effect | inactive | Active | Active
O=C1/C(=C/c2ccc(O)c([N+](=O)[O-])c2)SC(=S)N1c1cccc(C(F)(F)F)c1 | Active | Active | Active | Dose-dependent effect | inactive | Active | Active
O=C1NC(=O)N(c2ccc(I)cc2)C(=O)/C1=C/c1cnn(-c2ccccc2)c1 | Active | Active | Active | Dose-dependent effect | inactive | Active | Active
N#CC1=C(c2ccco2)CC(c2ccccc2)NC1=S (stereo unspecified) | Active | Active | Active | Dose-dependent effect | inactive | Active | Active
Cc1cc(/C=C2\C(=O)NC(=S)N(c3ccc(Cl)cc3)C2=O)c(C)n1-c1ccc([N+](=O)[O-])cc1 | Active | Active | Active | Dose-dependent effect | inactive | Active | Active
O=C1NC(=S)N(c2ccccc2F)C(=O)/C1=C/c1cccn1-c1ccc(Br)cc1 | Active | Active | Active | Dose-dependent effect | inactive | Active | Active
O=C1NC(=S)N(c2ccccc2)C(=O)/C1=C/c1ccc(-c2cc([N+](=O)[O-])ccc2Cl)o1 | Active | Active | Active | Dose-dependent effect | inactive | Active | Active
N=C1S/C(=C\c2ccc(N3CCOCC3)cc2)C(=O)N1c1ccc(Br)cc1 | Active | Active | Active | Dose-dependent effect | inactive | Active | Active
S=C(Nc1ccc2nc(-c3ccco3)c(-c3ccco3)nc2c1)N1CCCCCC1 | Active | Active | Active | Dose-dependent effect | inactive | Active | Active
O=C1/C(=C/c2ccc(O)cc2O)CCC/C1=C\c1ccc(O)cc1O | Active | Active | Active | Dose-dependent effect | inactive | Active | Active
O=C1/C(=C/c2ccc(O)c([N+](=O)[O-])c2)SC(=S)N1c1cccc(Cl)c1 | Active | Active | Active | Dose-dependent effect | inactive | Active | Active
O=C(O)c1cccc(N2N=C(C(F)(F)F)/C(=C/c3ccc(-c4ccc(S(=O)(=O)Nc5nccs5)cc4)o3)C2=O)c1 | Active | – | – | Dose-dependent effect | inactive | Active | –
CN(C)c1ccc(/C=C(\NC(=O)c2cccc(F)c2)C(=O)N/N=C/c2cc(Cl)cc([N+](=O)[O-])c2O)cc1 | Active | – | – | Dose-dependent effect | inactive | Active | –
COc1ccc(/C=C2\SC(=S)N(CCCC(=O)NNC(=O)c3ccccc3O)C2=O)cc1 | Active | – | – | Dose-dependent effect | inactive | Active | –
O=C1NC(=S)N(c2ccc(Cl)cc2)C(=O)/C1=C/c1ccc(I)o1 | Active | – | – | Dose-dependent effect | inactive | Active | –
Cn1cc(C(c2ccc(O)c(O)c2O)c2cn(C)c3ccccc23)c2ccccc21 | Active | – | – | Dose-dependent effect | inactive | Active | –
O=c1cc(-c2ccco2)nc(-c2ccco2)o1 | Active | – | – | Dose-dependent effect | inactive | Active | –
COC(=O)Cn1cc(/C=C2\C(=O)NC(=S)N(c3ccc(Cl)cc3)C2=O)c2ccccc21 | Active | – | – | Dose-dependent effect | inactive | Active | –
COc1ccc(N2C(=O)/C(=C/c3cccn3-c3ccc(Br)cc3)C(=O)NC2=S)cc1 | Active | – | – | Dose-dependent effect | inactive | Active | –
Cc1ccc(C)c(-c2nn(-c3ccccc3)cc2C=C2C(=O)NC(=O)NC2=O)c1 | Active | – | – | Dose-dependent effect | inactive | Active | –
COc1cc(-c2ccc(/C=C3\SC(=N)N(c4nccs4)C3=O)o2)c(OC)cc1Cl | Active | – | – | Dose-dependent effect | inactive | Active | –
O=C(/C=C/c1ccco1)/C=C/c1ccc(-c2ccc(Br)cc2)o1 | Active | – | – | Dose-dependent effect | inactive | Active | –
